The values below come from patent publication US20250326799A1, “AGENTS INDUCING VASCULARISATION” (Coegin Pharma AB, priority 2022, published 2025).

In assay [1] the test system is human coronary artery smooth muscle cells (HCASMCs). Briefly: BrdU cell proliferation in HCASMCs. The following applies: for vascular smooth muscle cell proliferation (DNA synthesis, uptake of BrdU, O.D. 450 nm): 10 nM, 100 nM, 1000 nM, compared to control; for smooth muscle cell proliferation (BrdU incorporation): addition of the peptide. It counts as cell-based. On the procedure:
Cell proliferation was evaluated with BrdU Cell Proliferation Elisa Kit (Abcam, UK). After incubation at 37° C. overnight with respective complete medium, for NRP-1 knock down-relative experiments, HUVECs and HCASMCs on 96-well plates were transfected with siRNA/siRNA-NC directly; for test polypeptide stimulations, HUVECs and HCASMCs were starved with low-serum condition for additional 24 hours and 48 hours before treatments. At 32 hours after transfection or polypeptide stimulations, cells were cultured with BrdU reagent for another 16 hours to determine cell proliferation. Subsequent steps were performed as manufacturer's instructions and data were read by Wallac 1420 Victor 2 (Perkin Elmer, USA).
The effect of FOL-026 peptide treatment on smooth muscle cell proliferation (FIG. 25a) and apoptosis (FIG. 25c) induced with low-oxygen condition was evaluated with the uptake of BrdU (n=10 per group) and active caspase-3/-7 (n=6-8 per group) separately. H2O2 measurement (FIG. 25b) of smooth muscle cells pre-incubated with FOL-26 peptides after 50 ug/ml oxidized Low-density Lipoprotein (oxLDL) stimulation for 2 hours (n=6-7 per group). Representative images of scratch wound assay in vitro are shown (FIG. 26a) and the ability of wound healing (FIG. 26b) in human coronary smooth muscle cells (HCASMCs) treated with FOL-026 peptides was measured by image J software (n=10 per group). Scale bar=150 um. Data are presented as means±SEM and acquired from 3 to 4 independent replicate tests. *P<0.05, **P<0.01, ***P<0.001, ****P<0.0001 by one-way ANOVA and Dunnett's post-hoc test.
The effect of FOL-005 peptide on smooth muscle cell proliferation (FIG. 30a) was determined with BrdU incorporation in peptide-treated human coronary smooth muscle cells (HCASMCs). Scratch wound assay (FIG. 30b) of HCASMCs incubated with FOL-005 peptides for 5 hours was measured by image J software (n=10-12 per group) and representative pictures of smooth muscle cell migration into an in vitro scratch injury were shown (FIG. 30c). Scale bar=150 um.
(In general: Incorporation of labelled thymidine or its analogues reports DNA synthesis.)

Assay [2] has as its system Human umbilical cord endothelial cells (HUVECs). Kind of assay: Endothelial tube formation on Geltrex matrix. It is filed as cell-based. The following applies: for tube formation (total length, master segments, branching, segments length): HUVECs treated with peptide; for endothelial tube formation after NRP-1 knock-down / endothelial tube formation: HUVECs; for endothelial tube formation after NRP-1 knock-down: siRNA-NC or siNRP-1 group, then rising dose of peptide; for endothelial tube formation: 10 nM, 100 nM, 1000 nM, compared to control. On the procedure: Cells were transfected for 48 hours or performed with 0.5% supplement starvation for 24 hours on 6-well plates as described above and dissociated by Accutase (Gibco, USA) to obtain cell suspension. Geltrex reduced growth factor basement membrane matrix ((Invitrogen, CA, USA) was thawed at 4° C. overnight and added into a 96-well plate (50 µl/well) next. The coated 96-well plate was placed in the incubator more than 30 mins for further use and the cell suspension was seeded into it at a density of 1.5 x 10^4/well. For NRP-1 silencing experiments, cells were cultured with complete medium. For polypeptide treatment experiments, cells were stimulated with complete medium plus the different concentration of polypeptide. For NRP-1 rescued experiments, cells transfected with siRNA were cultured with complete medium and NRP-1 stimulations. After a 24-hour incubation, images were recorded by an inverted microscope (Nikon, Eclipse TE2000-U, Japan) and the sum length of master segments of vessels in each image were quantified using Angiogenesis Analyzer plug-in ImageJ software program (pixel/unit). Data were analyzed with photographs from 8-14 wells per condition.
Human umbilical cord endothelial cells were first treated with a scramble non-coding siRNA (NC) or siRNA for NRP-1, subsequently treated with FOL26 in concentrations of 10 nM, 100 nM, and 1000 nM, and endothelial tube formation and the total master segemnts were measured using ImageJ. gene expression of PECAM-1 (CD31) analyzed.
Quantified measurement of total length (FIG. 20b), total master segments length (FIG. 20c), total branching length (FIG. 20d) and total segments length (FIG. 20e) were performed to evaluate angiogenesis in vitro (n=7 per group for FIG. 29 b-e). The quantification of vessel density was assessed with CD31+ positive area (FIG. 21a, n=13 per group). Western blot analysis of phosphorylated AKT (pAKT-T308), AKT, phosphorylated ERK1/2 (p-ERK1/2) and ERK1/2 in endothelial cells stimulated with FOL-26 peptides for 48 hours (FIG. 21b). Quantification of phosphorylation intensities normalized to respective total expressions (FIG. 21c-d, n=3 per group).
Tube formation with rising dose of FOL-026 peptide treatment in siRNA-NC or siNRP-1 group (FIG. 24a) and total length (FIG. 24b), total master segments length (FIG. 24c), total branching length (FIG. 24d) and total segments length (FIG. 24e) was calculated using Angiogenesis Analyzer plug-in ImageJ (n=7-12 per group). Scale bar=150 um. Data are presented as means±SEM and acquired from 3 to 4 independent replicate tests. *P<0.05, **P<0.01, ***P<0.001, ****P<0.0001 by two-way ANOVA followed with Sidak's and Dunnett's multiple comparisons test.
Quantified measurement of total master segments length FIG. 31b was used to evaluate angiogenesis in vitro (n=7 per group). Scale bar=150 um.

Entries after “also recorded” stand apart in the source; their conditions may differ.

Turning to VDTYDGGISVVYGLR [FOL-026], the “vascular smooth muscle cell proliferation (DNA synthesis, uptake of BrdU, O.D. 450 nm)” value in assay [1] (listed as FOL26) is listed as “significant increase in proliferation; also recorded: increase in O.D. (450 nm)”. Moreover, the “smooth muscle cell proliferation (BrdU incorporation)” value in assay [1] is given as “induces smooth muscle cell proliferation”. Moreover, in assay [2], the “tube formation (total length, master segments, branching, segments length)” value is listed as “positive effect” and the “endothelial tube formation after NRP-1 knock-down” value was “induce tube formation”. Also, in assay [2] (listed as FOL26), the “endothelial tube formation after NRP-1 knock-down” value is reported as “increased tube formation compared to control in a NRP-1 dependent way” and the endothelial tube formation result is on record as “significantly increased tube formation; also recorded: increased tube formation compared to control”.
On to AEIDSIELSYGIK [FOL56], for which the “vascular smooth muscle cell proliferation (DNA synthesis, uptake of BrdU, O.D. 450 nm)” value in assay [1] was “significant increase in proliferation; also recorded: increases proliferation at all concentrations”. Moreover, in assay [2], the endothelial tube formation entry is recorded as “significantly increased tube formation; also recorded: increased tube formation at all concentrations”.
As for VDTYDGDISVVYGLR [FOL-005], the “smooth muscle cell proliferation (BrdU incorporation)” value in assay [1] is “increases”. The “tube formation (total length, master segments, branching, segments length)” value in assay [2] is “increases the tube formation”.
